{
  "source": "patent US20160160264A1",
  "about": "“DIAGNOSTIC IN VITRO METHOD” (UNIVERSITÄT ZU KÖLN, priority 2013, published 2016)",
  "biological_target": "T1, recombinantly expressed and purified TPMT (Homo sapiens, UniProt P51580)",
  "T1 construct": "made in house",
  "T1 sequence (P51580 1-245)": "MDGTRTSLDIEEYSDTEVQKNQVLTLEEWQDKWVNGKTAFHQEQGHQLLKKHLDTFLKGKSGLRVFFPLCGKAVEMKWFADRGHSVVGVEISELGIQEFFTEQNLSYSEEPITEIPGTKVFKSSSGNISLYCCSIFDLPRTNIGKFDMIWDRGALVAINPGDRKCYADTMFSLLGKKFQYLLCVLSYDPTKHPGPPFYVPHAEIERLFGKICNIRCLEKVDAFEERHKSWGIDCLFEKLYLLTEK",
  "test": "Steady state kinetics with purified TPMT (substrate methylation, HPLC analysis)",
  "format": "biochemical",
  "conditions": "compound as substrate of 3 ng/μL purified TPMT; Moco: urothione synthesis in presence of alkaline phosphatase; 6-mercaptopurine: 6-methylmercaptopurine synthesis",
  "procedure": "(A) Kinetics of the urothione synthesis by TPMT in the presence of alkaline phosphatase. (B) Kinetics of the 6-methylmercaptopurine synthesis by TPMT. (C) Kinetic parameters of the kinetics shown in A and B.\nThe in vitro synthesis of urothione in kidney protein extracts is dependent on S-adenosylmethionine and Moco. […] Quantities used: 1.7 μg/μl kidney extract, 5 μM Moco, 500 μM SAM, 250 μM DTT in 0.1 M Tris/HCl pH7.5. The reaction was incubated for 4 h at 37° C. and then heat-denatured for 1 h at 60° for stopping and purified by means of QAE-Sepharose. The eluate was dried up and taken up in the HPLC solvent. HPLC analysis took place on a C4 Reprosil® 100 HPLC column, 150×2 mm, 5 μm particle size (Dr. Maisch GmbH) with 20 mM acetic acid and 15% methanol by isocratic elution. […] The increase of the peak at 24 min elution time indicates the formation of urothione. The increase of the peak at 31 min elution time indicates the formation of jukathione. Quantities used: 20 ng/μl TPMT, 2-16 μM Moco, 500 μM SAM, 250 μM DTT in 0.1 M Tris/HCl pH7.5. The reaction was incubated for 1 h at 37° C. and then heat-denatured for 1 h at 60° for stopping. The eluate was dried up and taken up in the HPLC solvent. HPLC analysis took place on a YMC C18 Hydrosphere@ column, 250×4 mm, 5 μm particle size with 20 mM formic acid by elution in a methanol gradient (0-25% 20 min, 1 mL/min). […] The in vitro transformation of Moco by means of liver extracts into urothione in the presence and absence of the TPMT inhibitor 3,4,5-triiodo benzoic acid is shown in FIG. 4. […] The in vitro transformation of Moco by purified TPMT into jukathione in the presence and absence of the TPMT inhibitor 3,4,5-triiodo benzoic acid is shown in FIG. 5. An HPLC chromatogram is shown of the analysis of jukathione after the incubation of purified 1 ng/μL TPMT with 500 μM SAM, 250 μM DTT and 10 μM Moco in the presence and absence of 2.5 μM 3,4,5-triiodo benzoic acid (inhibitor). […] What is depicted is the in vitro synthesis of urothione in protein extracts from RBCs from individuals with a normal TPMT activity (wild type) and persons with heterozygous mutations in the TPMT gene locus (heterozygous), and one person with a homozygous mutation (homozygous) in the TPMT gene locus. […] What is shown is the determination of the urothione content in individuals with a normal TPMT activity (wild type) and persons with heterozygous mutations in the TPMT gene locus (heterozygous), and two persons with homozygous mutations (homozygous) in the TPMT gene locus.\nUrothione detection: 10 μM Moco (isolated from heat-denaturated human sulfite oxidase) are incubated in 50 mM Tris/HCl, pH 7.2, 1 mM SAM, 250 μM dithiothreitol and 1.7 μg/μL liver protein extract or 3.4 μg/μL RBCs for 4 h at 37° C. […]",
  "data": [
    {"smiles": "Sc1ncnc2nc[nH]c12", "note": "[6-mercaptopurine]", "values": [
      {"measurement": "KM", "value": 69, "unit": "µM"},
      {"measurement": "kcat", "value": 0.047, "unit": "s⁻¹"}
    ]},
    {"smiles": "Nc1nc2c(c(=O)[nH]1)NC1C3=C([S][Mo](=[O])(=[O])([O-])[S]3)C(COP(=O)([O-])O)OC1N2", "note": "(stereo not shown) [Moco]", "values": [
      {"measurement": "KM", "value": 2, "unit": "µM"},
      {"measurement": "kcat", "value": 0.129, "unit": "s⁻¹"}
    ]}
  ]
}
